Measurements taken from patent publication US9902728B2, “Pyrrolo and pyrazolopyrimidines as ubiquitin-specific protease 7 inhibitors” (Forma Therapeutics, Inc., priority 2014, dated 2018).
Like-named read-outs stand apart in the source and are kept apart here.

Molecular target: T1, USP7 (Homo sapiens, UniProt Q93009)
T1 construct: USP7, construct USP7 (208-1102) 6*His, Viva Biotech; 6xHis (C); purchased Viva Biotech
Assay: USP7 Assay A (Ubitquin-Rhodamine 110 Assay)
Type: biochemical
Protocol: Each assay was performed in a final volume of 15 μL in assay buffer containing 20 mM Tris-HCl (pH 8.0, (1M Tris-HCl, pH 8.0 solution; Corning 46-031-CM)), 1 mM GSH (L-Glutathione reduced; Sigma #G4251), 0.03% BGG ([…], Sigma, #G7516-25G), and 0.01% Triton X-100 (Sigma, #T9284-10L). […] 5 μL of 2× enzyme was added to assay plates (pre-stamped with compound) preincubated with USP7 for 30 minutes and then 5 μL of 2×Ub-Rh110 was added to assay plates. […] Fluorescence was read on the Envision (Excitation at 485 nm and Emission at 535 nm; Perkin Elmer) or on the PheraSTAR (Excitation at 485 nm and Emission at 535 nm; BMG Labtech).
Data from USP7 Assays A and B were reported as percent inhibition (inh) compared with control wells based on the following equation: % inh=1−((FLU−AveLow)/(AveHigh−AveLow)) where FLU=measured Fluorescence (See Tables 6-10). AveLow=average Fluorescence of no enzyme control (n=16). AveHigh=average Fluorescence of DMSO control (n=16). […] Data is fitted using the Levenburg Marquardt algorithm.

[1] = USP7 assay A and B (table does not say which assay per compound), read-out: USP7_IC50
[2] = USP7 activity in USP7 assay A and B (table does not say which assay per compound), read-out: USP7_IC50

T1 sequence (Q93009 208-1102): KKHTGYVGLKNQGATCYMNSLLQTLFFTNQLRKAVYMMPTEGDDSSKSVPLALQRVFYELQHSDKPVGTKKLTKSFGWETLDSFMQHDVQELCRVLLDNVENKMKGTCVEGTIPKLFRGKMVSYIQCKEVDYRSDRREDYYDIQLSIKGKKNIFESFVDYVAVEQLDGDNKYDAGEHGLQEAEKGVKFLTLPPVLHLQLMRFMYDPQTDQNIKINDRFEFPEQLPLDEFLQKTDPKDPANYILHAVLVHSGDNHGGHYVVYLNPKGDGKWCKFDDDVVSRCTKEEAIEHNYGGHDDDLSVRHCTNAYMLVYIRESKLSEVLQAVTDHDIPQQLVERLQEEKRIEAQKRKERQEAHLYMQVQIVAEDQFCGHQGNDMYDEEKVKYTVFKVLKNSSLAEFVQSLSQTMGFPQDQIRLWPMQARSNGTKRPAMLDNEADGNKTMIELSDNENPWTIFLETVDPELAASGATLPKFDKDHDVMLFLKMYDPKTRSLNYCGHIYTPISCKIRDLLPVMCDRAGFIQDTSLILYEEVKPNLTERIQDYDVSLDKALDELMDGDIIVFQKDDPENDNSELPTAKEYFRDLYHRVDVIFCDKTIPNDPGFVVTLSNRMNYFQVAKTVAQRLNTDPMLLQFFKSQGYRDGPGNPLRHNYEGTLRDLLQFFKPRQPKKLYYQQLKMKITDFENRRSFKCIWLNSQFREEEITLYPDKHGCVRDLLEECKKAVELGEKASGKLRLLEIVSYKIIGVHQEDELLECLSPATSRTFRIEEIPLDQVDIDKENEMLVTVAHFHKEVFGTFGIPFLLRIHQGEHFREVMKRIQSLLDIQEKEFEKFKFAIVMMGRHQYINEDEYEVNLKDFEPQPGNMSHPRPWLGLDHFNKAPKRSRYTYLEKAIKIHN

`O=C(C1CC1)N1CCC(O)(Cn2cnc3c(cnn3-c3cccc(-c4cccc(Cl)c4)c3)c2=O)CC1` [Compound I-347] showed an IC50 [1] of 1 to 10 µM.
For `O=C(C1CCC(Oc2cccnn2)CC1)N1CCC(O)(Cn2cnc3c(cnn3-c3ccc(F)cc3)c2=O)CC1` (stereo not shown) [Compound I-1212], the IC50 [2] was 0.2 to 1 µM.
`CC1(C(=O)N2CCC(O)(Cn3cnc4c(cnn4-c4ccc(OCC5(F)CCC5)cc4)c3=O)CC2)CCC1` [Compound I-1137] gave an IC50 [2] of under 0.2 µM.
Work on `Cc1ccc(C(=O)N2CCC(O)(Cn3cnc4c(cnn4-c4ccc(-n5cc(OCCO)cn5)cc4)c3=O)CC2)cc1` [Compound I-672] yielded an IC50 [2] of 0.2 to 1 µM.
With `O=C(C1CC1)N1CCC(O)(Cn2cnc3c(cnn3-c3ccc(-c4cccc(N5CCCC5)c4)cc3)c2=O)CC1` [Compound I-399] the IC50 [1] was 1 to 10 µM.
With `Cc1cc(N[C@H]2CC[C@H](C(=O)N3CCC(O)(Cn4cnc5c(cnn5-c5ccc(F)cc5)c4=O)CC3)CC2)no1` [Compound I-806] the IC50 [2] was 0.2 to 1 µM.
`Cc1cnc(C(=O)N2CCC(O)(Cn3cnc4c(cnn4-c4ccccc4)c3=O)CC2)cn1` [Compound I-227] gave an IC50 [1] of over 10 µM.
Work on `O=C(c1cn(C2CC2)cn1)N1CCC(O)(Cn2cnc3c(cnn3-c3ccc(Cl)cc3)c2=O)CC1` [Compound I-1092] yielded an IC50 [2] of 1 to 10 µM.
With `Cc1ccc(-n2ncc3c(=O)n(CC4(O)CCN(C(=O)C[C@H](C)c5ccccc5)CC4)cnc32)cc1` [Compound I-1139] the IC50 [1] was under 0.2 µM.
With `CC1(C(=O)N2CCC(O)(Cn3cnc4c(cnn4-c4ccc(-c5cnn(C(F)F)c5)cc4)c3=O)CC2)CCC1` [Compound I-1721] the IC50 [2] was under 0.2 µM.
`CC1(C(=O)N2CCC(O)(Cn3cnc4c(cnn4-c4cccc(N5CC6CC(C5)O6)c4)c3=O)CC2)CC1` [Compound I-1692] gave an IC50 (USP7_IC50, USP7 activity in USP7 assay A and B (table does not say which assay per compound)) of under 0.2 µM.
Compound `O=C(c1cnc(C2CC2)o1)N1CCC(O)(Cn2cnc3c(cnn3-c3ccc(-n4cc(Cl)cn4)cc3)c2=O)CC1` [Compound I-1686] has an IC50 [2] of under 0.2 µM.
`CC1(C(=O)N2CCC(O)(Cn3cnc4c(cnn4-c4cccc(OCC5CC(F)(F)C5)c4)c3=O)CC2)CC1` [Compound I-1046, 1-(3-((3,3-difluorocyclobutyl)methoxy)phenyl)-5-((4-hydroxy-1-(1-methylcyclopropane-1-carbonyl)piperidin-4-yl)methyl)-1,5-dihydro-4H-pyrazolo[3,4-d]pyrimidin-4-one] gave an IC50 [2] of 0.2 to 1 µM.
Compound `CN1CCC(Oc2ccc(C(=O)N3CCC(O)(Cn4cnc5c(cnn5-c5ccc(F)cc5)c4=O)CC3)cc2)CC1` [Compound I-533] has an IC50 [1] of 1 to 10 µM.
In the case of `C=CS(=O)(=O)NCC(Cc1ccccc1)C(=O)N1CCC(O)(Cn2cnc3c(cnn3C)c2=O)CC1` (stereo not shown) [Compound I-170], the IC50 [1] is reported as over 10 µM.
`CC1CN(c2cccc(-n3ncc4c(=O)n(CC5(O)CCN(C(=O)C6(C)CC6)CC5)cnc43)c2)CC(C)N1C` (stereo not shown) [Compound I-1645] showed an IC50 [2] of under 0.2 µM.
Compound `Cc1ncc(C(=O)N2CCC(O)(Cn3cnc4c(cnn4-c4ccc(Cl)cc4)c3=O)CC2)o1` [Compound I-1524] has an IC50 [1] of 1 to 10 µM.
Work on `O=C(c1ccc(F)cc1)N1CCC(O)(Cn2cnc3c(cnn3-c3ccc(F)c(N4CCOCC4)c3)c2=O)CC1` [Compound I-639] yielded an IC50 [1] of 1 to 10 µM.
`Cc1cnn([C@H](CC(=O)N2CCC(O)(Cn3cnc4c(cnn4-c4ccc(F)cc4)c3=O)CC2)C(F)F)c1` [Compound I-735] showed an IC50 [2] of 1 to 10 µM.
Work on `O=C(N1CCC(O)(Cn2cnc3c(cnn3-c3ccccc3)c2=O)CC1)C1(C(F)(F)F)CC1` [Compound I-277] yielded an IC50 [1] of 1 to 10 µM.
With `CN1CCN(c2ccc(-n3ncc4c(=O)n(CC5(O)CCN(C(=O)C6(C)CC6)CC5)cnc43)cc2)CC1` [Compound I-1641] the IC50 [2] was under 0.2 µM.
In the case of `C[C@@H]1CN(c2cccc(-n3ncc4c(=O)n(CC5(O)CCN(C(=O)C6(C)CC6)CC5)cnc43)c2)CCN1C` [Compound I-1689], the IC50 [2] is reported as under 0.2 µM.
`Cc1cc(OC2CCN(C(=O)N3CCC(O)(Cn4cnc5c(cnn5-c5ccc(F)cc5)c4=O)CC3)CC2)no1` [Compound I-922] was tested, and the IC50 [2] was 1 to 10 µM.
Work on `O=C(c1ccc(-n2nccn2)cc1)N1CCC(O)(Cn2cnc3c(cnn3-c3ccc(Cl)cc3)c2=O)CC1` [Compound I-1129] yielded an IC50 [1] of 1 to 10 µM.
`O=C(C1CC1)N1CCC(O)(Cn2cnc3c(cnn3-c3ccc(CN4CCc5ccccc5C4)cc3)c2=O)CC1` [Compound I-437] gave an IC50 [1] of 1 to 10 µM.
`O=C(C1CC1)N1CCC(O)(Cn2cnc3c(cnn3-c3cccc(-c4cnc(N5CCOCC5)nc4)c3)c2=O)CC1` [Compounds I-401] was tested, and the IC50 [1] was 1 to 10 µM.
Compound `O=C(c1ccc(-n2cncn2)cc1)N1CCC(O)(Cn2cnc3c(cnn3-c3ccc(Cl)cc3)c2=O)CC1` [Compound I-1090] has an IC50 [2] of 0.2 to 1 µM.
In the case of `CN1CCN(c2cc(-n3ncc4c(=O)n(CC5(O)CCN(C(=O)c6ccccc6)CC5)cnc43)ccc2F)CC1` [Compound I-634], the IC50 [1] is reported as 1 to 10 µM.
`C=CC(=O)N1[C@@H](C(=O)N2CCC(O)(Cn3cnc4c(cnn4-c4ccc(F)cc4)c3=O)CC2)C[C@@H]1C` [Compound I-1003] gave an IC50 [2] of 1 to 10 µM.
`CC1(C(=O)N2CCC(O)(Cn3cnc4c(cnn4-c4cccc(N5CCN(C6COC6)CC5)c4)c3=O)CC2)CC1` [Compound I-1700] gave an IC50 [2] of 0.2 to 1 µM.
In the case of `Cc1cc(Oc2ccc(C(=O)N3CCC(O)(Cn4cnc5c(cnn5-c5ccc(F)cc5)c4=O)CC3)cc2)no1` [Compound I-563], the IC50 [2] is reported as 1 to 10 µM.
`Cn1cc(C(=O)N2CCC(O)(Cn3cnc4c(cnn4-c4ccc(Cl)cc4)c3=O)CC2)cn1` [Compound I-772] was tested, and the IC50 [2] was 0.2 to 1 µM.
`O=C(C1CC1)N1CCC(O)(Cn2cnc3c(cnn3-c3ccc(OC4CCOCC4)cc3)c2=O)CC1` [Compound I-1667] was tested, and the IC50 [1] was 1 to 10 µM.
`O=C(c1ccc(F)cc1)N1CCC(O)(Cn2cnc3c(cnn3-c3ccc(-c4cnn(C5COC5)c4)cc3)c2=O)CC1` [Compound I-1615] gave an IC50 [2] of 0.2 to 1 µM.
With `Cc1cnc(-c2ccc(C(=O)N3CCC(O)(Cn4cnc5c(cnn5-c5ccc(Cl)cc5)c4=O)CC3)cc2)n1C` [Compound I-1099] the IC50 [2] was 1 to 10 µM.
`C=CS(=O)(=O)Nc1ccccc1-c1ccc(C(=O)N2CCC(O)(Cn3cnc4c(cnn4C)c3=O)CC2)cc1` [Compound I-45, N-(4′-(4-Hydroxy-4-((1-methyl-4-oxo-1,4-dihydro-5H-pyrazolo[3,4-d]pyrimidin-5-yl)methyl)piperidine-1-carbonyl)-[1,1′-biphenyl]-2-yl)ethenesulfonamide] gave an IC50 [1] of 0.2 to 1 µM.
For `O=C(C1CCC(Oc2ccccn2)CC1)N1CCC(O)(Cn2cnc3c(ccn3-c3ccc(F)cc3)c2=O)CC1` (stereo not shown) [Compound I-1124], the IC50 [2] was under 0.2 µM.
For `O=C(C1CC1)N1CCC(O)(Cn2cnc3c(cnn3-c3ccc(-c4ccc5[nH]ccc5n4)cc3)c2=O)CC1` [Compound I-1768], the IC50 [2] was 0.2 to 1 µM.
With `CN1CCN(c2cccc(-n3ccc4c(=O)n(CC5(O)CCN(C(=O)C[C@@H](C(F)F)n6cccn6)CC5)cnc43)c2)CC1` [Compound I-793] the IC50 [2] was under 0.2 µM.
With `O=C(c1ccc(F)cc1)N1CCC(O)(Cn2cnc3c(cnn3-c3cccc(C4CCNCC4)c3)c2=O)CC1` [Compound I-993] the IC50 [1] was 1 to 10 µM.
With `Cc1ccc(-n2ncc3c(=O)n(CC4(O)CCN(C(=O)C[C@H](C(F)F)n5cccn5)CC4)cnc32)cc1` [Compound I-1060] the IC50 [1] was under 0.2 µM.
Work on `C#CC(=O)N(C)C1CC(C(=O)N2CCC(O)(Cn3cnc4c(cnn4-c4ccc(F)cc4)c3=O)CC2)C1` (stereo not shown) [Compound I-589] yielded an IC50 [1] of 1 to 10 µM.
In the case of `C[C@H](CC(=O)N1CCC(O)(Cn2cnc3c(cnn3-c3ccc(F)cc3)c2=O)CC1)n1cccn1` [Compound I-515], the IC50 [1] is reported as 1 to 10 µM.
`O=C(C1CC1)N1CCC(O)(Cn2cnc3c(cnn3-c3ccc(CN4CCC5(CCOCC5)C4)cc3)c2=O)CC1` [Compound I-443] gave an IC50 [1] of 1 to 10 µM.
`C#CC(=O)N1CC[C@H]1C(=O)N1CCC(O)(Cn2cnc3c(cnn3-c3ccc(F)cc3)c2=O)CC1` [Compound I-803] showed an IC50 [1] of 0.2 to 1 µM.
With `O=C(C1CC(Nc2ccc(F)cn2)C1)N1CCC(O)(Cn2cnc3c(cnn3-c3ccc(F)cc3)c2=O)CC1` (stereo not shown) [Compound I-1033] the IC50 [2] was 1 to 10 µM.
Work on `O=C(C[C@@H](c1ccccc1)C(F)(F)F)N1CCC(O)(Cn2cnc3c(cnn3-c3ccccc3)c2=O)CC1` [Compound I-142] yielded an IC50 [1] of under 0.2 µM.
For `C[C@H](CC(=O)N1CCC(O)(Cn2cnc3c(cnn3C(C)(C)C)c2=O)CC1)c1ccccc1` [Compound I-59], the IC50 (USP7 assay A and B (table does not say which assay per compound), Ubiquitin-Rhodamine 110 substrate, read-out: USP7_IC50) was 0.2 to 1 µM.
`N#Cc1cccc(-c2cccc(-n3ncc4c(=O)n(CC5(O)CCN(C(=O)C6CC6)CC5)cnc43)c2)c1` [Compound I-359] was tested, and the IC50 [1] was 1 to 10 µM.
Work on `C[C@@H](c1ccccc1)c1nn(C)cc1C(=O)N1CCC(O)(Cn2cnc3c(cnn3-c3ccc(F)cc3)c2=O)CC1` [Compound I-1163] yielded an IC50 [2] of 1 to 10 µM.
Compound `C[C@H](c1ccccc1)c1nn(C)cc1C(=O)N1CCC(O)(Cn2cnc3c(cnn3-c3ccc(F)cc3)c2=O)CC1` [Compound I-1162] has an IC50 [2] of under 0.2 µM.
For `O=C(C1CC1)N1CCC(O)(Cn2cnc3c(cnn3-c3ccc(N4CCN5CCCCC5C4)cc3)c2=O)CC1` (stereo not shown) [Compound I-1584], the IC50 [1] was 0.2 to 1 µM.
`O=C(NC1CNCC1F)N1CCC(O)(Cn2cnc3c(cnn3-c3ccc(-c4ccccc4)cc3)c2=O)CC1` (stereo not shown) [Compound I-662] was tested, and the IC50 [1] was over 10 µM.
Compound `O=C(c1ccc(-n2ccnc2)cc1)N1CCC(O)(Cn2cnc3c(cnn3-c3ccc(Cl)cc3)c2=O)CC1` [Compound I-1088] has an IC50 [2] of 0.2 to 1 µM.
In the case of `O=C(C[C@H](C(F)F)n1cccn1)N1CCC(O)(Cn2cnc3c(cnn3-c3ccc(F)cc3)c2=O)CC1` [Compound I-517], the IC50 [1] is reported as 1 to 10 µM.
